Measurements: patent publication US20160317561A1, “USE OF D-RIBOSE FOR FATIGUED SUBJECTS” (Bioenergy Life Science, Inc., priority 2008, published 2016)

Columns and labels:
Format in all cases: in vivo, human
[1] = Sub-maximal cardiopulmonary exercise (CPX) treadmill testing in fatigued aging subjects; conditions: for Hr to METS ratio at AT, mean change / Net Energy Expenditure at AT, mean change / O2 Uptake Slope, mean change / VE Slope, mean change / VO2 at AT, mean change: 3.0 g D-ribose bid orally
Procedure: The pilot study was performed enrolling 20 aging subjects, greater than 45 years of age, who were self-perceived as fatigued and tired as their customary daily state for at least one month, with no strenuous exercise or physical labor to account for the fatigue. No subjects had documented histories of heart/lung or metabolism/endocrine disease, as set out more fully below in the inclusion criteria. The causes of fatigue in aging subjects is unknown. It can be hypothesized that the causes are mental, since lowered cognition and feeling of wellbeing is also common in aging persons. The aforementioned studies of unhealthy persons or persons exercising strenuously found a dose of five to eight grams of D-ribose, taken two to four times per day was recommended to raise or maintain ATP levels. Lower amounts such as in this study, were not found adequate for those subjects. For the healthy, but sedentary and aging subjects for this study, it was expected that they were already at an optimum ATP level. Two doses of oral D-ribose at 1.5 grams or 3.0 grams bid were selected to test the hypothesis that raising ATP levels with D-ribose could have some benefit in improving fatigue. Each subject consumed the oral D-ribose for two weeks, dissolved in a small amount of water. Study assessments were done at baseline, and at one and two weeks during the trial. The lower dose study was continued an additional two weeks. The subjective and objective assessment parameters included: sub-maximal exercise performance, resting and sub-maximal energy expenditure, the SF-36 Quality of Life Assessment and a subjective questionnaire for evaluating fatigue.
Energy expenditure was calculated both at rest (BMR) and also at the anaerobic threshold (AT) using standard formulae incorporated into CPX-based software. Net energy expenditure was determined by subtracting resting values from those calculated at the subject's AT. In addition, the completed activity log was used to determine potential changes in cumulative (daily and weekly) energy expenditure throughout the first and second weeks while on D-ribose. Further, work efficiency was determined by calculating the reciprocal of aerobic power or the VO2 to WR ratio, as computed at the anaerobic threshold.
The formula for calculation of energy expenditure at the anaerobic threshold was based, in part, on the actual measured resting energy expenditure (RER) and VO2 at that level of exercise, knowing that a subject can sustain a steady state at the initial phase of the AT, which represents a particular phase of exercise whereby energy metabolism due to an increase in oxygen consumption resulting in a reduction in tissue oxygen perfusion shifts to an anaerobic instead of an oxidative phosphorylation. The AT interval varies from person to person depending on physical condition or training. Individuals who are not trained and relatively deconditioned have a low AT, as compared to elite endurance athletes having a high AT. At the AT, fuel mix for skeletal muscle metabolism is somewhat balanced. This point occurs in the range between 40% to 60% of the maximum VO2 attained. For example, assuming that equal amounts of fats and carbohydrates are oxidized at an RER of 0.85 just prior to AT onset, energy expenditure can be calculated using the formula VO2(L/min)×4.862 kcal/min for each liter of oxygen consumed. Likewise, if an individual was at an RER of 0.89 under steady state conditions, their absolute VO2 in L/min would be multiplied by a factor of 4.911. Net energy expenditure would be calculated subtracting the subject's resting energy expenditure (REE) or BMR. METS or net metabolic equivalents was also used to express the subject's activity level at their AT.
For this study, a ramping incremental treadmill exercise protocol was followed. […] The treadmill exercise was increased from 0 mph to 3.0 mph and the elevation increased from 0 to 12%, over the test time of six minutes. […]

[2] = SF-36 Quality of Life Questionnaire in fatigued aging subjects
Excerpt: The SF-36 Quality of Life Questionnaire was also used. Subjects were asked to fill out a questionnaire on the normal activities that they participated in. An example of the SF-36 Quality of Life Questionnaire is presented in Appendix A. These activities included household chores, walking, yard work and whether the subject routinely climbed stairs. Additionally, subjects were asked how many days in the past week they felt good; missed work or routine chores because of fatigue; how tired they felt and their state on awakening in the morning. In order to understand what the self-perception of fatigue (described as fatigue, tiredness or loss of vitality) indicates, it is helpful to look at the questions asked in SF-36 Quality of Life questionnaire (Appendix A). The SF-36 questionnaire is applied particularly to evaluating physician-prescribed therapies, but the gender-neutral, generic, coherent and easily administered questions are useful to evaluate any discrete cohort of subjects in the categories desired. […] The first three categories as listed are directed to the subject's self-perceived status. The remaining categories are directed to the extent that status (whatever that status may be), affects the subject's functioning roles in several categories.

[3] = Fatigue questionnaire / Visual Analog Scale (VAS) for fatigue in fatigued aging subjects; conditions: for Fatigue questionnaire: lower dose (1.5 g bid)
Procedure: Subjects were monitored at baseline and during the two week treatment period for their perceived fatigue activity levels. Subjects were asked to rate on a ten point scale (1=near dead to 10=excellent) the following questions: How is your energy? (1=no energy, 10=excellent); How do you sleep? (1=no sleep, 10=8 hours without waking); How is your mental clarity? (1=“brain fog”, 10=good clarity); How bad is your pain?; How is your overall sense of well being? At weeks one and two, subjects were also asked to describe their overall rating of symptoms of fatigue as compared to their symptoms at baseline. The five point scale was; much better, somewhat better; no change; somewhat worse and much worse. The investigators selected end-points of some assessments to determine whether the subjects remained the same or improved at one and two weeks. The results were represented in a Visual Analog Scale (VAS) for fatigue. Nine subjects completed the VAS forms of subjective estimate of tiredness (Appendix B) on a scale of 1 (completely disagree) to 7 (completely agree).

[4] = Side effects of D-ribose administration in the study subjects; conditions: higher (3.0 g bid) or lower (1.5 g bid) doses
Excerpt: D-ribose ingestion is known to have the potential to cause gastrointestinal distress, including flatulence and diarrhea, and also can lower blood glucose.

**Q.** For `O=C[C@H](O)[C@H](O)[C@H](O)CO` [D-ribose], which “Hr to METS ratio at AT, mean change” value ([1]; Week 1 vs baseline) is on record?
**A.** The value was −3.00 +/− 2.83.

**Q.** What about the “Net Energy Expenditure at AT, mean change” value ([1]; Week 1 vs baseline) of the same compound?
**A.** The value was 9.32 +/− 7.67.

**Q.** What about the “O2 Uptake Slope, mean change” value ([1]; Week 1 vs baseline) of the same compound?
**A.** The value was 0.17 +/− 0.19.

**Q.** And the “VE Slope, mean change” value ([1]; Week 1 vs baseline)?
**A.** Its value is −2.26 +/− 1.69.

**Q.** What about the “VO2 at AT, mean change” value ([1]; Week 1 vs baseline) of the same compound?
**A.** The value was 1.53 +/− 0.90.

**Q.** What about the “Hr to METS ratio at AT, mean change” value ([1]; Week 2 vs baseline) of the same compound?
**A.** Its value is −3.67 +/− 3.27.

**Q.** What about the “Net Energy Expenditure at AT, mean change” value ([1]; Week 2 vs baseline) of the same compound?
**A.** The value was 16.23 +/− 6.13.

**Q.** And the “O2 Uptake Slope, mean change” value ([1]; Week 2 vs baseline)?
**A.** The value was 0.24 +/− 0.15.

**Q.** And the “VE Slope, mean change” value ([1]; Week 2 vs baseline)?
**A.** Its value is −2.44 +/− 2.24.

**Q.** And the “VO2 at AT, mean change” value ([1]; Week 2 vs baseline)?
**A.** Its value is 2.13 +/− 0.78.

**Q.** And the “Increase in resting energy expenditure at the AT onset” value ([1]; 3.0 g bid orally, end of two weeks)?
**A.** Its value is 8.2%.

**Q.** What about the “Rise in net energy expenditure at the AT onset” value ([1]; 3.0 g bid orally, end of two weeks, p<0.0005) of the same compound?
**A.** The value was 32%.

**Q.** And the “Increase in VO2 at the AT onset” value ([1]; 3.0 g bid orally, end of two weeks, p<0.001)?
**A.** Its value is 18%.

**Q.** What about the “Increase in heart rate at the AT onset” value ([1]; 3.0 g bid orally, end of two weeks, p=0.012) of the same compound?
**A.** Its value is 9.2%.

**Q.** What about the “Decrease in heart rate to METS ratio” value ([1]; 3.0 g bid orally, two weeks) of the same compound?
**A.** Its value is 11.7%.

**Q.** What about the “Decrease in oxygen pulse indexed to inspiratory drive” value ([1]; 3.0 g bid orally, two weeks) of the same compound?
**A.** The value was 8.9%.

**Q.** And the “Decrease in ventilatory efficiency slope” value ([1]; 3.0 g bid orally, two weeks)?
**A.** The value was 8.5%.

**Q.** And the “Increase in change in oxygen pulse times change in expired CO2 at AT” value ([1]; 3.0 g bid orally, two weeks)?
**A.** The value was 60.8%.

**Q.** And the “Average calorie burned from fat substrate at the AT” value ([1]; 3.0 g bid orally, two weeks, most subjects)?
**A.** Its value is “did not change significantly”.

**Q.** What about the “CPX parameters (objective measures)” value ([1]; lower dose (1.5 g bid), two weeks to four weeks) of the same compound?
**A.** The value was “positive trend”.

**Q.** And the “Response to the SF-36 Questionnaire” value ([2]; lower dose (1.5 g bid), four weeks)?
**A.** The value was “improvement in symptoms of general health, vitality and mental outlook”.

**Q.** What about the “SF-36 Bodily pain (interference with activities)” value ([2]; results at two weeks) of the same compound?
**A.** Its value is “significant improvement”.

**Q.** And the “SF-36 Emotional function role” value ([2]; results at two weeks)?
**A.** Its value is “significant improvement”.

**Q.** And the “SF-36 Social function role” value ([2]; results at two weeks)?
**A.** The value was “significant improvement”.

**Q.** What about the “SF-36 Vitality” value ([2]; results at two weeks, initially low at 40th percentile) of the same compound?
**A.** The value was “significant improvement”.

**Q.** And the “SF-36 Physical competence” value ([2]; results at two weeks, initially near normal)?
**A.** The value was “slight improvement”.

**Q.** And the “SF-36 General health” value ([2]; results at two weeks, initially normal)?
**A.** The value was “slight improvement”.

**Q.** And the “SF-36 Role physical function” value ([2]; results at two weeks, initially slightly subnormal)?
**A.** The value was “significant improvement”.

**Q.** And the “Social functionality, emotional wellbeing, mental health and mental competence (questionnaire)” value ([2]; two weeks, mental categories based on additional questions not in SF-36)?
**A.** The value was “increases”.

**Q.** What about the Fatigue questionnaire ([3]; continued for an additional two weeks (four weeks), FIG. 7) of the same compound?
**A.** The Fatigue questionnaire was “Continued improvement”.

**Q.** What about the Fatigue questionnaire ([3]; two weeks) of the same compound?
**A.** Its Fatigue questionnaire is “slight reduction in fatigue”.

**Q.** What about the “Decrease in self-perceived levels of fatigue (average)” value ([3]; six grams of D-ribose per day (3.0 g bid), two weeks) of the same compound?
**A.** Its value is 50%.

**Q.** What about the “Side effects of D-ribose administration” value [4] of the same compound?
**A.** The value was “No subjects in this study, at either the higher or the lower doses, experienced any side effects”.
